Literature values, collected in US8283180B2, “Periodic acid-schiff staining with detection in the infrared range” (Amicus Therapeutics, Inc., priority 2007, dated 2012).

Assays:
[1] = test system: Japanese medaka (Oryzias latipes); conditions: low DCA exposure concentrations; as early as week two of exposure
[2] = test system: mice
[3] = test system: rats
[4] = test system: infantile Pompe disease

| Compound | changes in the liver [1] | carcinogenicity [2] | carcinogenicity [3] | left-ventricular mass index [4] | motor function by the Alberta Infant Motor Scale (AIMS) ([4]; unblinded assessment) |
| --- | --- | --- | --- | --- | --- |
| O=C(O)C(Cl)Cl [DCA, dichloroacetic acid] | marked hepatocellular cytoplasmic vacuolation, cytomegaly, karyomegaly, nuclear atypia and multifocal areas of hepatocellular necrosis and loss | carcinogenic | carcinogenic | – | – |
| Myozyme: enzyme replacement therapy with recombinant α-glucosidase, approved for infantile Pompe disease | – | – | – | improved with treatment | did not improve with treatment |
